{
  "source": "patent US7319094B2",
  "about": "“Increased and sustained in vivo gene expression using a nucleic acid, histone and amphipathic compound composition” (Rhode Island Hospital, priority 2001, dated 2008)",
  "assay_type_in_all_cases": "cell-based, human",
  "key": {"[1]": {"system": "p53", "test": "p53 expression, Western blot / MICE assay", "conditions": "PNET2 cells induced to express AD7c-NTP, growth factor stimulated", "description": "(§1) Standard Western blot assays wew used to measure cellular levels of p53, Bcl-2, p21/Waf1, phospho-tau, tau, c-fos, NTP, and activated (phosphorylated) forms of Erk mitogen activated protein (MAP) kinase, amino-terminal c-jun-activated kinase (pJNK), and p38/HOG1. Immunoprecipitation followed by Western blot analysis was used to measure p85 subunit associated with IRS1. For Western blot analysis of p53 Bcl-2, phospho-tau, tau, c-fos, and NTP, the cells were lysed in ice cold radioimmunoprecipitation assay (RIPA) buffer supplemented with protease and phosphatase inhibitors. For the immunoprecipitation studies, Western blot analysis of phospho-Erk, pJNK, and p38, and the PI3 kinase assays, the cells were harvested in Triton lysis buffer supplemented with protease and phosphatase inhibitors. Protein concentrations were measured using the BCA assay (Pierce, Rockford, Ill.). Samples containing 60 μg of protein were fractionated by sodium dodecyl sulfate polyacrylamide gel electrophoresis (SDS-PAGE), then transferred to PVDF membranes, and analyzed by Western immunoblotting. Immunoreactivity was detected with horseradish peroxidase conjugated secondary IgG and PicoWest enhanced chemiluminescence reagents (Pierce Chemical Company, Rockford, Ill.). CAT activity was measured using known methods.\nThe MICE assay is known in the art (e.g., as described by de la Monte et al., 1999, Biotechniques 26:107301076). The assay is a rapid and sensitive method for quantifying immunoreactivity in 96-well micro-cultures and combines the advantages of the enzyme-linked immunosorbant assay with immunocytochemical staining to permit sensitive in situ quantification of protein expression with values normalized to cell density. […] Immunoreactivity was detected using horseradish peroxidase conjugated secondary antibody (Pierce, Rockford, Ill.) and the TMB soluble peroxidase substrate (Pierce, Rockford, Ill.). Absorbances were measured at 450 nm using a Spectracount plate reader. […]"}, "[2]": {"system": "phospho-JNK", "test": "Growth factor stimulated phospho-JNK, Western blot", "conditions": "5-30 min stimulation", "description": "as §1\nThe potential mechanisms by which the differential effects of insulin, IGF1 and PDGF might occur were explored by examining pathways, which mediate PNET2 neuronal apoptosis and neuritic sprouting. […] Western blot analysis was performed with cell lysates obtained from cultures stimulated with insulin, IGF1, or PDGF for 0-30 minutes or 24 hours with equivalent protein loading (60 μg/sample). The membranes were probed using antibodies to Erk, phospho-Erk, Jun, and phospho-JNK. […] In contrast, after 24 hours of AD7c-NTP gene induction and growth factor stimulation, high levels of phospho-Erk MAPK were detected in the IGF-1 and PDGF-stimulated cultures, but not in the serum-starved or insulin-stimulated cultures. […] In contrast, the levels of c-fos transcription factor were equally expressed after 24 hours IPTG induction of AD7c-NTP expression and either serum starvation or stimulation with insulin, IGF1 or PDGF."}, "[3]": {"system": "IRS-1-associated PI3 kinase", "test": "IRS-1-associated PI3 kinase activity", "conditions": "3 mM IPTG-induced cultures, 30 minutes of stimulation", "method": "The cells were harvested in Triton lysis buffer supplemented with protease and phosphatase inhibitors. Total PI3K was immunoprecipitated from 500 μg protein in cell lysates using rabbit polyclonal antibodies to the p85 subunit of PI3K and Protein A sepharose. The immunoprecipitants were incubated for 5 minutes at room temperature with 10 μg of sonicated phosphatidylinositol in HEPES buffer (200 mM HEPES, 4 mM EGTA, 4 mM sodium phosphate, pH 7.0). Reactions were initiated by the addition of 5 μCi [α^32p] ATP, 15 mM MgCl2, 150 mM ATP, 1.5 mM Tris-HCl, pH 7.4, and 15 mM NaCl. […] Phosphorylated lipids were analyzed by thin layer chromatography using gel plates pre-coated with 1% oxalate (Merck, White House Station, N.J.). PI3K activity was measured with a phosphorimager.\nPI3 kinase is an important mediator of neuronal survival. […] Since insulin and IGF-1 can activate PI3 kinase through the insulin-receptor substrate-1 (IRS-1) or through IRS-1-independent pathways, both IRS1-associated PI3 kinase and total PI3 kinase activities were measured. […] Levels of PI3 kinase activity were measured in anti-phospho-tyrosine (PY) immunoprecipitates. […] Similarly, PI3 kinase activity was readily detected in the PY immunoprecipitates prepared with cells stimulated with insulin or PDGF."}, "[4]": {"system": "p25", "test": "p25 expression, Western blot / MICE assay", "conditions": "PNET2 cells induced to express AD7c-NTP", "description": "as §1, with “For the immunoprecipitation studies, Western blot analysis of phospho-Erk, pJNK, and p38, and the PI3 kinase assays, the cells were harvested in Triton lysis buffer supplemented with protease and phosphatase inhibitors.” left out\nThe MICE assay is known in the art (e.g., as described by de la Monte et al., 1999, Biotechniques 26:107301076). […] Immunoreactivity was detected using horseradish peroxidase conjugated secondary antibody (Pierce, Rockford, Ill.) and the TMB soluble peroxidase substrate (Pierce, Rockford, Ill.). […]"}},
  "note": "“Also recorded” adds a separate entry of the source.",
  "data": [
    {"substance": "insulin: Human insulin purchased from Novagen", "values": [
      {"measurement": "p53 level", "setting": "[1]", "value": "high levels of p53; also recorded: significantly increased levels"},
      {"measurement": "phospho-JNK level, short-term stimulation", "setting": "[2]", "value": "sharply increased and sustained elevations"},
      {"measurement": "IRS-1-associated PI3 kinase activity", "setting": "[3]", "value": "sharply increased"},
      {"measurement": "p25 level", "setting": "[4]", "value": "significantly increased levels"}
    ]}
  ]
}
